Test results reported in ChEMBL document CHEMBL5725949, “Pyrazolopyridine derivatives and their use in therapy” (2018).
pIC50: −log10 of the molar value.

Test: Antitrypanosomal Activity Assay: Antitrypanosomal activity was tested on T. brucei brucei bloodstream from parasites (strain¿Lister 427, VATMITat 1.2). Stock solutions of compounds (50 mM) were prepared in DMSO. Two fold serial dilutions of each compound (10 wells in each row) were prepared in 96 well plates in HMI111 medium (100 μl/well; quadruplicates; cf. also Hirumi et al., J. Parasitol. 75 (1989), 985-989). One well without compound, and one well with media alone were included in each row. Parasites grown in HMI11 were inoculated (100 μl of 4×10^4/ml) in all wells (except the well with ¿media alone¿) giving a final concentration of parasites of 2×10^4/ml. The plates were incubated for 66 hours at 37° C. in the incubator with 5% CO2. 20 μl resazurin (Sigma, 0.125 mg/ml in Hanks Balanced Salt Solution) was added to all wells and the plate was further incubated for 6 hours. Change in color of resazurin (blue to pink) by living cells was measured with a 96 well plate reader (excitation at 530 nm, emission at 585 nm, filter cut-off: 570 nm). Percent inhibition values were calculated by setting the well without compound to ¿0% inhibition¿.

SMILES | pIC50
COc1ccc(CN2CCc3nn4c(c3C2)C(=O)N(Cc2cccc3ccccc23)CC4)c2ccccc12 | 5.37
COc1ccc(CN2CCc3c(c(C(=O)NCc4cccc5ccccc45)nn3CCN3CCOCC3)C2)c2ccccc12 | 6.00
Cc1ccccc1-c1ccc(CN2CCc3c(c(C(=O)NCc4ccccc4)nn3CCO)C2)cc1 | 5.56
NCCn1nc(C(=O)NCc2cccc3ccccc23)c2c1CCN(Cc1ccc(Cl)cc1)C2 | 6.01
O=C(NCc1ccccc1)c1nn(CCO)c2c1CN(Cc1cccn1-c1ccccn1)CC2 | 4.98
O=C(NCc1cccc2ccccc12)c1nn(CCO)c2c1CN(CCc1ccccc1)CC2 | 4.57
COc1ccc(CN2CCc3c(c(C(=O)NCc4cccc5ccccc45)nn3CCNC(=N)N)C2)c2ccccc12 | 6.66
CCCc1ccc(CN2CCc3c(c(C(=O)NCc4cccc5ccccc45)nn3CCO)C2)cc1 | 5.36
COc1ccc(CN2CCc3[nH]nc(C(=O)NCc4cccc5ccccc45)c3C2)c2ccccc12 | 5.95
O=C(NCc1cccc2ccccc12)c1nn(CCO)c2c1CN(Cc1cccc3c1OCO3)CC2 | 4.80
O=C(NCc1ccccc1)c1nn(CCO)c2c1CN(Cc1cc3ccccc3c3ccccc13)CC2 | 5.47
Cn1nc(C(=O)NCc2ccccc2)c2c1CCN(Cc1c[nH]c3cc(OCc4ccccc4)ccc13)C2 | 5.77
COc1ccc(CN2CCc3c(c(C(=O)NCc4cccc5ccccc45)nn3CCN)C2)c2c1CCCC2 | 6.24
CC(NC(=O)c1nn(CCO)c2c1CN(C(=O)c1ncc3sccn13)CC2)c1ccccc1 (stereo not drawn) | 4.30
CC(NC(=O)c1nn(CCO)c2c1CN(CC1Cc3ccccc3CN1C)CC2)c1ccccc1 (stereo not drawn) | 4.87
COc1ccc(CN2CCc3c(c(C(=O)NCc4cccc5ccccc45)nn3-c3ccccc3)C2)c2ccccc12 | 6.62
Cc1ccc(CCN2CCc3c(c(C(=O)NCc4cccc5ccccc45)nn3CCO)C2)cc1 | 3.94
Cn1nc(C(=O)NCc2ccccc2)c2c1CCN(Cc1ccc(-c3ccccc3)cc1)C2 | 5.39
O=C(NCc1ccccc1)c1nn(CCO)c2c1CN(CC(c1ccccc1)c1ccccc1)CC2 | 5.27
CC(NC(=O)c1nn(CCO)c2c1CN(Cc1ccc3ccoc3c1)CC2)c1ccccc1 (stereo not drawn) | 4.79
O=C(NCc1ccccc1)c1nn(CCO)c2c1CN(Cc1cnn(-c3ccccc3)c1)CC2 | 4.90
O=C(NCc1cccc2ccccc12)c1nn(CCO)c2c1CN(Cc1c[nH]c3c(C(=O)O)cccc13)CC2 | 4.37
O=C(c1nn(Cc2ccccn2)c2c1CN(Cc1ccccc1)CC2)N1CCc2ccccc2C1 | 5.02

SMILES | pIC50
COc1ccc(CN2CCc3c(c(C(=O)NCc4cccc5ccccc45)nn3Cc3ccccc3)C2)c2ccccc12 | 5.47
COc1ccc(CN2CCc3nn(CCO)c(C(=O)NCc4cccc5ccccc45)c3C2)c2ccccc12 | 4.62
COc1ccc(CN2CCc3c(c(C(=O)NCc4cccc5ccccc45)nn3C3CCC3)C2)c2ccccc12 | 5.70
Cn1nc(C(=O)NCc2ccc3ccccc3c2)c2c1CCN(Cc1c[nH]c3ccccc13)C2 | 5.58
CC(=O)c1ccc(CN2CCc3c(c(C(=O)NCc4ccccc4)nn3CCO)C2)cc1 | 4.65
O=C(NCc1ccccc1)c1nn(CCO)c2c1CN(Cc1ccc(-c3ccccc3)cc1)CC2 | 5.27
CCc1ccc(CN2CCc3c(c(C(=O)NCc4ccccc4)nn3CCO)C2)cc1 | 4.87
COc1ccc(CN2CCc3c(c(C(=O)NCc4cccc5cccnc45)nn3CCO)C2)c2ccccc12 | 5.53
COc1ccc(CN2CCc3c(c(C(=O)NCc4cccc5ccccc45)nn3C3CN(C(=O)C(C)(C)C)C3)C2)c2ccccc12 | 5.96
COc1ccc2c(CN3CCc4c(c(C(=O)NCc5cccc6ccccc56)nn4CCO)C3)c[nH]c2c1 | 5.60
CC(NC(=O)c1nn(CCO)c2c1CN(Cc1cccc3c1OCO3)CC2)c1ccccc1 (stereo not drawn) | 4.75
CC(NC(=O)c1nn(CCO)c2c1CN(Cc1cnn(-c3ccccc3)c1)CC2)c1ccccc1 (stereo not drawn) | 4.84
COc1ccc2[nH]c(CN3CCc4c(c(C(=O)NCc5cccc6ccccc56)nn4CCO)C3)cc2c1 | 5.15
COc1ccc(CN2CCc3c(c(C(=O)NCc4cccc5ccccc45)nn3-c3cnccn3)C2)c2ccccc12 | 5.59
COc1ccc(CN2CCc3c(c(C(=O)NCc4cccc5ccccc45)nn3C3CCCC3)C2)c2ccccc12 | 5.91
NCCn1nc(C(=O)NCc2cccc3ccccc23)c2c1CCN(Cc1ccc(Cl)c(Cl)c1)C2 | 5.90
C=C(C)C1CC=C(CN2CCc3c(c(C(=O)NCc4ccccc4)nn3CCO)C2)CC1 (stereo not drawn) | 4.77
O=C(NCc1ccccc1)c1nn(CCO)c2c1CN(Cc1cccc(OC(F)F)c1)CC2 | 4.71
C=CCn1nc(C(=O)NCc2ccccc2)c2c1CCN(Cc1ccc3ncccc3c1)C2 | 5.02
Cn1nc(C(=O)NCc2ccccc2)c2c1CCN(Cc1noc3c1CCCC3)C2 | 4.35
O=C(NCc1cccc2ccccc12)c1nn(CCO)c2c1CN(Cc1ccc(F)c3ccccc13)CC2 | 4.47
COc1ccc(CN2CCc3c(c(C(=O)NCc4cccc5ccccc45)nn3CC(O)CN)C2)c2ccccc12 (stereo not drawn) | 6.21
O=C(NCc1ccccc1)c1nn(-c2ccccc2)c2c1CN(Cc1c[nH]c3ccccc13)CC2 | 5.64

SMILES | pIC50
O=C(NCc1cccc2ccccc12)c1nn(CCO)c2c1CN(Cc1cccc3cc[nH]c13)CC2 | 5.33
Cn1nc(C(=O)NCc2ccccc2)c2c1CCN(Cc1cccc(-c3ccccc3)c1)C2 | 5.39
O=C(NCc1ccccc1)c1nn(CCO)c2c1CN(CC1=CC(=O)C3C=C(Cl)C=CC3O1)CC2 (stereo not drawn) | 4.45
Cc1nc2sccn2c1CN1CCc2c(c(C(=O)NCc3ccccc3)nn2CCO)C1 | 4.57
COc1cc(CN2CCc3c(c(C(=O)NCc4ccccc4)nn3CCO)C2)cc2c1OCO2 | 4.96
O=C(CC1CC1)N1CCc2c(c(C(=O)N3CCc4ccccc4C3)nn2Cc2ccccn2)C1 | 4.26
COc1ccc(CN2CCc3c(c(C(=O)NCc4cccc5[nH]ccc45)nn3CCO)C2)c2ccccc12 | 5.99
COC(=O)c1ccc2c(CN3CCc4c(c(C(=O)NCc5cccc6ccccc56)nn4CCO)C3)c[nH]c2c1 | 5.57
O=C(NCc1cccc2ccccc12)c1nn(CCO)c2c1CN(Cc1ccc(-c3ccccc3)cc1)CC2 | 6.06
O=C(NCc1ccccc1)c1nn(CCO)c2c1CN(Cc1ccc(OC(F)(F)F)cc1)CC2 | 4.90
O=C(NCc1ccccc1)c1nn(CCO)c2c1CN(Cc1ccc3c(c1)OC=CO3)CC2 | 4.63
Cn1nc(C(=O)NCc2cccc3ccccc23)c2c1CCN(Cc1cccc3ccccc13)C2 | 5.38
O=C(NCc1ccccc1)c1nn(CCO)c2c1CN(Cc1ccccc1C(F)(F)F)CC2 | 4.24
COc1ccc2cc(CN3CCc4c(c(C(=O)NCc5cccc6ccccc56)nn4CCO)C3)ccc2c1 | 4.74
O=C(NCc1cccc2ccccc12)c1nn(CCO)c2c1CN(Cc1ccc(C(F)(F)F)cc1)CC2 | 5.52
O=C(NCc1cccc2ccccc12)c1nn(CCO)c2c1CN(Cc1cccc(-c3ccccc3)c1)CC2 | 5.82
O=C(NCc1ccccc1)c1nn(CCO)c2c1CN(Cc1ccccc1-c1ccco1)CC2 | 5.17
O=C(NCc1cccc2ccccc12)c1nn(CCO)c2c1CN(Cc1c[nH]c3cc(OCc4ccccc4)ccc13)CC2 | 5.00
COc1ccc(CN2CCc3c(c(C(=O)NCc4cccc(C)c4)nn3CCO)C2)c2ccccc12 | 5.11
O=C(NCc1cccc2ccccc12)c1nn(CCO)c2c1CN(Cc1cccc3cccnc13)CC2 | 5.19
COc1ccc(CN2CCc3c(c(C(=O)NCc4cc(F)cc5ccccc45)nn3CCO)C2)c2ccccc12 | 4.95
COC(=O)c1cccc2c(CN3CCc4c(c(C(=O)NCc5ccccc5)nn4CCO)C3)c[nH]c12 | 4.88
